Laboratory results reported in patent US20090286876A1, “NEUROPROTECTIVE BENZOATE AND BENZAMIDE COMPOUNDS” (Samaritan Pharmaceuticals, Inc., priority 2003, published 2009).
Like-named read-outs stand apart in the source and are kept apart here.

Columns and labels:
PC12 cells [1] = test: Aβ1-42-induced free radical production (2,7-DCF fluorescent probe); settings: compound 1-100 μM 24 h pre-incubation; Aβ1-42 0.1-10 μM 24 h
PC12 cells [2] = test: Reversal of Aβ1-42-induced ATP depletion (ATPLite-M assay); settings: for ATP decrease induced by Aβ1-42, Aβ1-42 control = 100% reduction: 24 h pre-incubation, 24 h; for effect on Aβ1-42-induced ATP decrease, in words: compound 1-100 μM, Aβ1-42 0.1-10 μM
σ2-receptor = σ2-receptor (Homo sapiens, UniProt Q5BJF2); test: σ2-receptor binding
Chain of σ2-receptor (Q5BJF2 whole entry, species assumed): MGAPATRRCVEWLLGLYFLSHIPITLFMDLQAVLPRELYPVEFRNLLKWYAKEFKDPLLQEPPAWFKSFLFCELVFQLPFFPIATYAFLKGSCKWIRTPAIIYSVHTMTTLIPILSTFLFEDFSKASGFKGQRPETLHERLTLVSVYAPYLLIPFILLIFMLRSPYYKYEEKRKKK

HMG-CoA reductase mRNA = HMG-CoA reductase mRNA synthesis, real-time quantitative PCR; format: cell-based, rat
sigma-1 receptor = molecular target: T1, sigma-1 receptor (Homo sapiens, UniProt Q99720); test: Displacement of [3H](+)pentazocine from sigma-1 receptor expressed in Jurkat cells; format: binding
T1 construct: sigma-1 receptor expressed in Jurkat cells; endogenous in cells; host or cells: Jurkat cells
T1 sequence (Q99720 whole entry): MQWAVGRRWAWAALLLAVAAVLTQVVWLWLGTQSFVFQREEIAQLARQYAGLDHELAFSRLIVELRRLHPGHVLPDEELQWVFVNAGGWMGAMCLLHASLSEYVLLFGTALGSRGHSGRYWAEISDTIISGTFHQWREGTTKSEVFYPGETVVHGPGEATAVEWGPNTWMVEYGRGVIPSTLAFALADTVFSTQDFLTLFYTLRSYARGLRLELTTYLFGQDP

PC12 cells [3] = test: Glutamate-induced excitotoxicity, MTT assay; format: cell-based, rat; settings: glutamate 100 μM 24 h; for neuroprotective effect against glutamate-induced cell death (MTT), in words: compound 0.3-30 μM 24 h pre-incubation
PC12 cells [4] = test: Neuroprotection against Aβ1-42 cytotoxicity, MTT assay (NADPH diaphorase activity); format: cell-based, rat
[5] = cited from earlier work
[6] = compound 1-100 μM, Aβ1-42 0.1-10 μM

Compound | effect on Aβ1-42-induced free radical production, in words (PC12 cells [1]) | ATP decrease induced by Aβ1-42, Aβ1-42 control = 100% reduction (PC12 cells [2]; compound 1 μM, Aβ1-42 0.1 μM) [%] | ATP decrease induced by Aβ1-42, Aβ1-42 control = 100% reduction (PC12 cells [2]; compound 1 μM, Aβ1-42 1 μM) [%] | ATP decrease induced by Aβ1-42, Aβ1-42 control = 100% reduction (PC12 cells [2]; compound 1 μM, Aβ1-42 10 μM) [%] | ATP decrease induced by Aβ1-42, Aβ1-42 control = 100% reduction (PC12 cells [2]; compound 10 μM, Aβ1-42 0.1 μM) [%] | ATP decrease induced by Aβ1-42, Aβ1-42 control = 100% reduction (PC12 cells [2]; compound 10 μM, Aβ1-42 1 μM) [%] | ATP decrease induced by Aβ1-42, Aβ1-42 control = 100% reduction (PC12 cells [2]; compound 10 μM, Aβ1-42 10 μM) [%] | ATP decrease induced by Aβ1-42, Aβ1-42 control = 100% reduction (PC12 cells [2]; compound 100 μM, Aβ1-42 0.1 μM) [%] | ATP decrease induced by Aβ1-42, Aβ1-42 control = 100% reduction (PC12 cells [2]; compound 100 μM, Aβ1-42 1 μM) [%] | ATP decrease induced by Aβ1-42, Aβ1-42 control = 100% reduction (PC12 cells [2]; compound 100 μM, Aβ1-42 10 μM) [%] | effect on Aβ1-42-induced ATP decrease, in words (PC12 cells [2]) | protective effect against Aβ1-42 neurotoxicity (MTT), in words (PC12 cells [4]; [6]) | further results
CCN(CC)CC(=O)Nc1c(C)cccc1C [Lidocaine, (2-diethylamino)-N-(2,6-dimethylphenyl)-acetamide] | exhibited a trend to reduce the Aβ1-42-induced free radical production | 38.7 ± 26.1 | 62.0 ± 8.5 | 53.5 ± 20.3 | 47.2 ± 28.7 | 69.0 ± 13.0 | 65.0 ± 7.6 | 65.3 ± 45.2 | 81.3 ± 8.7 | 70.1 ± 4.8 | restored ATP concentrations in PC12 cells exposed to 0.1 and 1 μM Aβ1-42 |  | 
CCN(CC)CCNC(=O)c1ccc(N)cc1 [Procainamide] | exhibited a trend to reduce the Aβ1-42-induced free radical production | 46.8 ± 25.9 | 51.4 ± 17.3 | 56.5 ± 11.6 | 60.4 ± 5.8 | 61.7 ± 10.8 | 56.2 ± 6.1 | 40.9 ± 14.5 | 40.8 ± 6.5 | 52.2 ± 10.2 | significantly prevented the Aβ1-42-induced decrease of intracellular ATP levels |  | 
CCN(CC)CCOC(=O)c1ccc(N)cc1 [Procaine, 4-aminobenzoic acid 2-(diethylamino)ethyl ester] | exhibited a trend to reduce the Aβ1-42-induced free radical production | 64.0 ± 24.4 | 67.8 ± 13.8 | 86.8 ± 5.5 | 56.0 ± 16.4 | 97.0 ± 45.5 | 89.8 ± 5.1 | 42.8 ± 16.9 | 69.6 ± 12.1 | 83.6 ± 20.6 | protected against the 0.1 μM Aβ1-42-induced depletion of ATP concentrations in a dose-dependent manner | important protective effect against 0.1 and 1 μM Aβ1-42 induced toxicity | IC50 (σ2-receptor): > 10 µM; basal level of HMG-CoA reductase mRNA, in words (HMG-CoA reductase mRNA; control PC12 cells, no Aβ1-42): did not affect; level of HMG-CoA reductase mRNA induced by Aβ1-42, in words (HMG-CoA reductase mRNA; procaine 1 or 10 μM 18 h pre-incubation, Aβ1-42 1 μM 24 h): decreased in a dose-dependent manner; Hill coefficient (nH) (sigma-1 receptor): 1.0; IC50 (sigma-1 receptor): 4.3 µM; neuroprotective effect against glutamate-induced cell death (MTT), in words (PC12 cells [3]): prevented the glutamate-induced neurotoxicity in a biphasic manner; reduction of the NADPH diaphorase inhibition induced by Aβ1-42 (PC12 cells [4]; 1 and 10 μM procaine): at least 30%; pKa [5]: 8.9
CCN1CCN(OC(=O)c2ccc(OC)c(OC)c2OC)CC1 [SP008, (4-ethylpiperazinyl-1-yl)-2′,3′,4′-trimethoxybenzoate] |  |  |  |  |  |  |  |  |  |  |  |  | neuroprotective effect against glutamate-induced cell death (MTT), in words (PC12 cells [3]): more important than that of procaine effect at the same concentration; concentration of maximum (peak) protective effect against glutamate (PC12 cells [3]; compound tested at 0.3-30 μM): 3 µM
CC(=O)OC1CC(O)C2(C)C(OC(C)=O)C3C(CC(C)C12)OC(=O)C3CN1CCN(C(=O)c2ccccc2)CC1 (stereo not drawn) [SP015, Acetic acid 7-acetoxy-3-(4-benzoyl-piperazin-1-yl-methyl)-5-hydroxy-4a, 8-dimethyl-2-oxo-dodecahydro-azuleno[6,5-b]furan-4-yl ester] | amplified the Aβ1-42-induced free radicals production | 46.3 ± 10.1 | 55.6 ± 5.3 | 32.8 ± 9.4 | 99.2 ± 13.1 | 124 ± 24.7 | 104 ± 22.5 | 91.5 ± 1.5 | 85.6 ± 12.3 | 73.8 ± 6.8 | able to reverse the effect of Aβ1-42 on ATP | protected only at 1 and 10 μM concentrations against the highest concentration of Aβ1-42 | 
CC(=O)OC1CC(OC(C)=O)C2(C)C(O)C3C(CC(C)C12)OC(=O)C3CN1CCN(C(=O)c2ccccc2)CC1 (stereo not drawn) [SP016, acetic acid 5-acetoxy-3-(4-benzoyl-piperazin-1-yl-methyl)-4-hydroxy-4a, 8-dimethyl-2-oxo-dodecahydro-azuleno[6,5-b]furan-7-yl ester] | amplified the Aβ1-42-induced free radicals production | 49.5 ± 10.2 | 81.5 ± 4.2 | 96.8 ± 30.6 | 101 ± 7.8 | 105 ± 10.1 | 110 ± 10.1 | 86.3 ± 15.7 | 100 ± 17.8 | 121 ± 29.0 |  | no protective activity | 
CC1=CCC23OC2(C)CCC2C(CN4CCN(C(=O)c5ccccc5)CC4)C(=O)OC2C13 (stereo not drawn) [SP017, 3-(4-benzoyl-piperazin-1-yl-methyl)-6,6a-epoxy-6,9-dimethyl-3a,4,5,6,6a,7,9a,9b-octahydro-3H-azuleno[4,5-b]furan-2-one] | amplified the Aβ1-42-induced free radicals production | 28.1 ± 7.2 | 42.6 ± 5.8 | 73.0 ± 12.1 | 54.9 ± 15.6 | 44.9 ± 8.1 | 68.9 ± 7.3 | 115 ± 21.4 | 108 ± 20.8 | 122 ± 6.7 | able to reverse the effect of Aβ1-42 on ATP | at 100 μM potentiated the toxic effect of Aβ1-42 | efficacy range, inhibition of Aβ1-42 toxicity (mitochondrial diaphorase activity) (PC12 cells [4]): 30-70%
CCCCNc1ccc(C(=O)OCCN(C)C)cc1 [Tetracaine] | exhibited a trend to reduce the Aβ1-42-induced free radical production | 54.8 ± 4.0 | 32.2 ± 5.5 | 45.5 ± 6.1 | 59.5 ± 9.6 | 58.0 ± 18.9 | 41.9 ± 4.2 | 59.3 ± 10.5 | 45.4 ± 2.2 | 45.8 ± 6.5 | significantly prevented the Aβ1-42-induced decrease of intracellular ATP levels |  | 
(+)-MK801 |  |  |  |  |  |  |  |  |  |  |  |  | protective effect against Aβ1-42 neurotoxicity (MTT), in words (PC12 cells [4]): lessens in a dose-dependent manner PC12 cell viability decrease induced by Aβ1-42
Aβ1-42: 42 amino acid β-amyloid peptide purchased from American Peptide Co., used as neurotoxic insult |  |  |  |  |  |  |  |  |  |  |  |  | HMG-CoA mRNA synthesis (HMG-CoA reductase mRNA; Aβ1-42 1 μM, 24 h, compared to control PC12 cells): 1.48±0.17 times the control level
